The source of these data is PubChem BioAssay AID180 (DTP/NCI, 2004).

This assay has as its system BDF1 mice, Adenocarcinoma 755 s.c., tumor weight T/C. In words: NCI In Vivo Anticancer Drug Screen. Data for tumor model Adenocarcinoma 755 (subcutaneous) in B6D2F1 (BDF1) mice. To be noted: endpoint: mean tumor weight, schedule: Q01DX011 (ip), higher = larger tumour. The procedure, abridged: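 In vivo antitumor screen on a transplantable tumor line. Result equals the measure in compound-treated animals divided by the same measure in vehicle controls.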

Setting [1] is: dose: 3.1 mg/kg/injection, vehicle: methylcellulose (MC).
Where [2] appears, read: dose: 6.2 mg/kg/injection, vehicle: methylcellulose (MC).
Setting [3] is: dose: 12.5 mg/kg/injection, vehicle: methylcellulose (MC).

Where “and” joins values, the source holds several entries; their conditions need not be identical. Identical values can stand only once.

For `O=C(Nc1ccc(C2=NCCN2)cc1)c1cccc(C(=O)Nc2ccc(C3=NCCN3)cc2)c1`, the T/C (usually the ratio of treated to control) is 110 % of control (dose: 9.0 mg/kg/injection, vehicle: water); 76 % of control (dose: 9.4 mg/kg/injection, vehicle: carboxymethylcellulose (CMC)); 165 % of control (dose: 12.0 mg/kg/injection, vehicle: water); 86 % of control (dose: 15.0 mg/kg/injection, vehicle: methylcellulose (MC)); 108 % of control (dose: 18.0 mg/kg/injection, vehicle: water); 60 % of control (dose: 18.75 mg/kg/injection, vehicle: carboxymethylcellulose (CMC)). Further, the T/C reads like this: (dose: 25.0 mg/kg/injection, vehicle: water) 60 % of control; (dose: 30.0 mg/kg/injection, vehicle: methylcellulose (MC)) 64 % of control; (dose: 37.5 mg/kg/injection, vehicle: water) 47 % of control; (dose: 50.0 mg/kg/injection, vehicle: water) 59 % of control; (dose: 60.0 mg/kg/injection, vehicle: methylcellulose (MC)) 67 % of control; (dose: 120.0 mg/kg/injection, vehicle: methylcellulose (MC)) 37 % of control.
Turning to `CC(C)CCn1cnc2c(=S)nc(N)[nH]c21`, the T/C by setting is: (dose: 1.5 mg/kg/injection, vehicle: methylcellulose (MC)) 48 % of control; under setting [1], 37 % of control; under setting [2], 14 % of control; under setting [3], 1 % of control and 9 % of control.
On to `CCCNS(=O)(=O)c1ncnc2nc[nH]c12`, for which the T/C by setting is: (dose: 9.0 mg/kg/injection, vehicle: carboxymethylcellulose (CMC)) 52 % of control; (dose: 18.0 mg/kg/injection, vehicle: carboxymethylcellulose (CMC)) 17 % of control; (dose: 37.0 mg/kg/injection, vehicle: carboxymethylcellulose (CMC)) 3 % of control.
As for `CCCCNc1ncnc2c1cnn2C1CCCCO1` (stereo not given), the T/C is, setting by setting: (dose: 3.12 mg/kg/injection, vehicle: methylcellulose (MC)) 39 % of control; (dose: 6.25 mg/kg/injection, vehicle: methylcellulose (MC)) 44 % of control; under setting [3], 20 % of control; (dose: 25.0 mg/kg/injection, vehicle: methylcellulose (MC)) 12 % of control.
In the case of `Nc1nc(=S)c2ncn(C3CCCC3)c2[nH]1`, the T/C was 37 % of control under setting [1] and 8 % of control under setting [2].
Regarding `CCn1cnc2c(SC3CCCC3)ncnc21`, the T/C is, setting by setting: (dose: 5.0 mg/kg/injection, vehicle: carboxymethylcellulose (CMC)) 16 % of control; (dose: 7.5 mg/kg/injection, vehicle: carboxymethylcellulose (CMC)) 4 % of control; (dose: 10.0 mg/kg/injection, vehicle: carboxymethylcellulose (CMC)) 3 % of control; (dose: 25.0 mg/kg/injection, vehicle: carboxymethylcellulose (CMC)) 14 % of control.
In the case of `Clc1ncnc2c1ncn2C1CCCCO1` (stereo not given), the T/C is 72 % of control (dose: 31.0 mg/kg/injection, vehicle: other) and 7 % of control (dose: 62.0 mg/kg/injection, vehicle: other).
On to `O=C(CCBr)N1CCN(C(=O)CCBr)CC1`, for which the T/C (dose: 5.6 mg/kg/injection, vehicle: methylcellulose (MC)) was 103 % of control; the T/C (dose: 11.25 mg/kg/injection, vehicle: methylcellulose (MC)) is 89 % of control and 94 % of control; the T/C (dose: 15.0 mg/kg/injection, vehicle: carboxymethylcellulose (CMC)) was 56 % of control; the T/C (dose: 22.5 mg/kg/injection, vehicle: methylcellulose (MC)) was 40 % of control and 65 % of control; the T/C (dose: 30.0 mg/kg/injection, vehicle: carboxymethylcellulose (CMC)) is 37 % of control; the T/C (dose: 45.0 mg/kg/injection, vehicle: methylcellulose (MC)) is 51 % of control. Also, the T/C is 24 % of control (dose: 60.0 mg/kg/injection, vehicle: carboxymethylcellulose (CMC)) and 12 % of control (dose: 90.0 mg/kg/injection, vehicle: methylcellulose (MC)).
Consider `Cc1ccc(N(O)C(=O)Nc2ccccc2)cc1`, for which the T/C is, setting by setting: (dose: 100.0 mg/kg/injection, vehicle: methylcellulose (MC)) 95 % of control; (dose: 200.0 mg/kg/injection, vehicle: methylcellulose (MC)) 80 % of control.
In the case of `CCc1c(Cl)nc(N)nc1Nc1ccc(Br)cc1`, the T/C (dose: 31.0 mg/kg/injection, vehicle: methylcellulose (MC)) is 118 % of control; the T/C (dose: 62.0 mg/kg/injection, vehicle: methylcellulose (MC)) is 105 % of control; the T/C (dose: 125.0 mg/kg/injection, vehicle: methylcellulose (MC)) was 106 % of control; the T/C (dose: 250.0 mg/kg/injection, vehicle: methylcellulose (MC)) was 116 % of control.
